Measurements reported in patent US12673946B2, “Pyrimidin-4(3H)-one derivatives as TRPV4 antagonists” (RaQualia Pharma Inc., priority 2020, dated 2026).

Biological target: T1, human TRPV4 (Homo sapiens, UniProt Q9HBA0)
T1 construct: host or cells: tetracycline-inducible Flp-In T-REx 293 cells
Assay: Hypotonicity-induced Ca2+ influx (Fluo-4, FDSS)
Type: cell-based
In short: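 Flp-In T-REx 293 cells with tetracycline-induced human TRPV4, loaded with Fluo-4 for 60 min at 25 °C. Compound added 5 min before hypotonic mannitol/CaCl2 solution. Ca2+ signal recorded for 4.5 min on FDSS.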

[1] = Flp-In T-REx 293 cells expressing human TRPV4, examples listed under heading 'Human IC50<50 nM'
[2] = Flp-In T-REx 293 cells stably expressing human TRPV4, compounds listed by potency bin (<10 nM Tables 96-1/96-2, <3 nM Table 97)

T1 sequence (Q9HBA0 whole entry): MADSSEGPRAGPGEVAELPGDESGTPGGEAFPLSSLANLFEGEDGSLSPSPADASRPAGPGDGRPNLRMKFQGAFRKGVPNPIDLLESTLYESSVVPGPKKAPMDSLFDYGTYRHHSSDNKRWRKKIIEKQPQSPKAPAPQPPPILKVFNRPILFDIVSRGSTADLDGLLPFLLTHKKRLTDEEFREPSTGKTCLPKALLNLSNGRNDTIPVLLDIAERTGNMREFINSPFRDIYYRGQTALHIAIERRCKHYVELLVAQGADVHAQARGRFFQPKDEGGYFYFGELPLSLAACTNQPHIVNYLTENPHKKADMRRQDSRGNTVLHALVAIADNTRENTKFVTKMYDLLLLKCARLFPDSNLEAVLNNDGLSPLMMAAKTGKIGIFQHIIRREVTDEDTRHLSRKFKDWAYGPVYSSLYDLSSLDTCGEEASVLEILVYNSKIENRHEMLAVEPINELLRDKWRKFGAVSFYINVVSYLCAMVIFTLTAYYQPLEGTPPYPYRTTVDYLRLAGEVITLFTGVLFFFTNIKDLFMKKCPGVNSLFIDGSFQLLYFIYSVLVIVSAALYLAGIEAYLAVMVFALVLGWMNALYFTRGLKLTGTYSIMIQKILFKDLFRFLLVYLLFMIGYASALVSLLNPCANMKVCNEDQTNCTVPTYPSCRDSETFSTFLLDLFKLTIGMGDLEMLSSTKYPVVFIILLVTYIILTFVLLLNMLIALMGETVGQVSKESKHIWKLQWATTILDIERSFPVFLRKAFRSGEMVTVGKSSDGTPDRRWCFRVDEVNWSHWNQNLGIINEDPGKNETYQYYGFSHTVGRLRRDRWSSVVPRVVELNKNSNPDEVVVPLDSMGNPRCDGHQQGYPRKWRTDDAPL

| Compound | IC50 [1] [nM] | IC50 [2] [nM] |
| --- | --- | --- |
| O=C([C@H](O)c1cccc(Cl)c1)N1CCCc2nc(C3(c4cccc(C5CCCCC5)c4)CC3)[nH]c(=O)c2C1 [29-2, (R)-6-(2-(3-chlorophenyl)-2-hydroxyacetyl)-2-(1-(3-cyclohexylphenyl)cyclopropyl)-3,5,6,7,8,9-hexahydro-4H-pyrimido[5,4-c]azepin-4-one] | < 50 | < 3 |
| O=C([C@H](O)c1cccc(Cl)c1)N1CCCc2nc(C3(c4cccc(C5CCCC5)c4)CC3)[nH]c(=O)c2C1 [29-3] | < 50 | < 3 |
| O=C([C@H](O)c1cccc(Cl)c1)N1CCCc2nc(C3(c4cccc(C5CCC(F)(F)CC5)c4)CC3)[nH]c(=O)c2C1 [29-4] | < 50 | < 3 |
| O=C([C@H](O)c1cccc(C(F)(F)F)c1)N1CCCc2nc(C3(c4cc(C5CCCC5)cs4)CC3)[nH]c(=O)c2C1 [30-1] | < 50 | < 3 |
| CCc1csc(C2(c3nc4c(c(=O)[nH]3)CN(C(=O)[C@H](O)c3cccc(C(F)(F)F)c3)CCC4)CC2)c1 [30-2] | < 50 | < 3 |
| O=C([C@H](O)c1cccc(C(F)(F)F)c1)N1CCCc2nc(C3(c4cc(C5CCC(F)(F)CC5)cs4)CC3)[nH]c(=O)c2C1 [30-3] | < 50 | < 3 |
| CC(C)(C)CCc1csc(C2(c3nc4c(c(=O)[nH]3)CN(C(=O)[C@H](O)c3cccc(C(F)(F)F)c3)CCC4)CC2)c1 [30-4] | < 50 | < 10 |
| O=C([C@H](O)c1cccc(C(F)(F)F)c1)N1CCCc2nc(C3(c4cc(CCC56CC7CC(CC(C7)C5)C6)cs4)CC3)[nH]c(=O)c2C1 [30-5] | < 50 | < 10 |
| O=C([C@H](O)c1cccc(C(F)(F)F)c1)N1CCCc2nc(C3(c4cc(CCC5CCOCC5)cs4)CC3)[nH]c(=O)c2C1 [30-6] | < 50 | < 10 |
| O=C([C@H](O)c1cccc(C(F)(F)F)c1)N1CCCc2nc(C3(c4cc(C5CCOCC5)cs4)CC3)[nH]c(=O)c2C1 [30-7] | < 50 | < 10 |
| O=C([C@H](O)c1cccc(C(F)(F)F)c1)N1CCCc2nc(C3(c4cc(CCC5CC5)cs4)CC3)[nH]c(=O)c2C1 [30-8] | < 50 | < 10 |
| O=C([C@H](O)c1cccc(C(F)(F)F)c1)N1CCCc2nc(C3(c4cc(CCc5ccccc5)cs4)CC3)[nH]c(=O)c2C1 [30-9] | < 50 | < 10 |
| COCCCc1csc(C2(c3nc4c(c(=O)[nH]3)CN(C(=O)[C@H](O)c3cccc(C(F)(F)F)c3)CCC4)CC2)c1 [30-10] | < 50 | < 10 |
| O=C([C@H](O)c1cccc(C(F)(F)F)c1)N1CCCc2nc(C3(c4cc(CCC5COC5)cs4)CC3)[nH]c(=O)c2C1 [30-11] | < 50 | < 10 |
| CC(C)(O)CCc1csc(C2(c3nc4c(c(=O)[nH]3)CN(C(=O)[C@H](O)c3cccc(C(F)(F)F)c3)CCC4)CC2)c1 [30-12] | < 50 |  |
| CC(=O)N1CCC(c2csc(C3(c4nc5c(c(=O)[nH]4)CN(C(=O)[C@H](O)c4cccc(C(F)(F)F)c4)CCC5)CC3)c2)CC1 [30-13] | < 50 |  |
| O=C([C@H](O)c1cccc(C(F)(F)F)c1)N1CCCc2nc(C3(c4cc(CCC5(O)CCCCC5)cs4)CC3)[nH]c(=O)c2C1 [30-14] | < 50 | < 10 |
| O=C([C@H](O)c1cccc(C(F)(F)F)c1)N1CCCc2nc(C3(c4cccc(C5CCN(CC(F)(F)F)CC5)c4)CC3)[nH]c(=O)c2C1 [31-1] | < 50 | < 3 |
| O=C([C@H](O)c1cccc(C(F)(F)F)c1)N1CCCc2nc(C3(c4cccc(C5CCC(F)(F)CC5)c4)CC3)[nH]c(=O)c2C1 [31-2] | < 50 | < 3 |
| CC1(C)CCC(c2cccc(C3(c4nc5c(c(=O)[nH]4)CN(C(=O)[C@H](O)c4cccc(C(F)(F)F)c4)CCC5)CC3)c2)CC1 [31-3] | < 50 | < 3 |
| CC(c1cccc(C2(c3nc4c(c(=O)[nH]3)CN(C(=O)[C@H](O)c3cccc(C(F)(F)F)c3)CCC4)CC2)c1)C(F)(F)F (stereo partly drawn) [31-4] | < 50 | < 3 |
| O=C([C@H](O)c1cccc(C(F)(F)F)c1)N1CCCc2nc(C3(c4cccc(C5CCCC5)c4)CC3)[nH]c(=O)c2C1 [31-5] | < 50 | < 3 |
| CC(C)Cc1cccc(C2(c3nc4c(c(=O)[nH]3)CN(C(=O)[C@H](O)c3cccc(C(F)(F)F)c3)CCC4)CC2)c1 [31-6] | < 50 | < 3 |
| O=C([C@H](O)c1cccc(C(F)(F)F)c1)N1CCCc2nc(C3(c4cccc(C5CCOCC5)c4)CC3)[nH]c(=O)c2C1 [31-7] | < 50 | < 10 |
| CC(C)c1cccc(C2(c3nc4c(c(=O)[nH]3)CN(C(=O)[C@H](O)c3cccc(C(F)(F)F)c3)CCC4)CC2)c1 [31-8] | < 50 | < 3 |
| O=C(Cc1ccccc1)N1CCC(c2cccc(C3(c4nc5c(c(=O)[nH]4)CN(C(=O)[C@H](O)c4cccc(C(F)(F)F)c4)CCC5)CC3)c2)CC1 [31-9] | < 50 | < 10 |

| Compound | IC50 [1] [nM] | IC50 [2] [nM] |
| --- | --- | --- |
| O=C(c1ccccc1)N1CCC(c2cccc(C3(c4nc5c(c(=O)[nH]4)CN(C(=O)[C@H](O)c4cccc(C(F)(F)F)c4)CCC5)CC3)c2)CC1 [31-10] | < 50 | < 10 |
| O=C(CCc1ccccc1)N1CCC(c2cccc(C3(c4nc5c(c(=O)[nH]4)CN(C(=O)[C@H](O)c4cccc(C(F)(F)F)c4)CCC5)CC3)c2)CC1 [31-11] | < 50 | < 3 |
| CC(C)(C)CC(=O)N1CCC(c2cccc(C3(c4nc5c(c(=O)[nH]4)CN(C(=O)[C@H](O)c4cccc(C(F)(F)F)c4)CCC5)CC3)c2)CC1 [31-12] | < 50 | < 10 |
| CC(C)c1cccc(C2(c3nc4c(c(=O)[nH]3)CN(C(=O)Cc3cccc(-c5cccc(C(F)(F)F)c5)c3)CCC4)CC2)c1 [31-13] | < 50 | < 10 |
| O=C(Cc1cccc(-c2cccc(C(F)(F)F)c2)c1)N1CCCc2nc(C3(c4cccc(C5CCCCC5)c4)CC3)[nH]c(=O)c2C1 [31-14] | < 50 | < 10 |
| CC(C)c1cccc(C2(c3nc4c(c(=O)[nH]3)CN(C(=O)Cc3cccc(-c5cccc(Cl)c5)c3)CCC4)CC2)c1 [31-15] | < 50 | < 10 |
| O=C(Cc1cccc(-c2cccc(Cl)c2)c1)N1CCCc2nc(C3(c4cccc(C5CCCCC5)c4)CC3)[nH]c(=O)c2C1 [31-16] | < 50 | < 10 |
| CC(C)c1cc(C2(c3nc4c(c(=O)[nH]3)CN(C(=O)[C@H](O)c3cccc(C(F)(F)F)c3)CCC4)CC2)ccn1 [32-1] | < 50 | < 10 |
| O=C([C@H](O)c1cccc(Cl)c1)N1CCc2nc(C3(c4cccc(-c5cccnc5)c4)CC3)[nH]c(=O)c2C1 [34-1] | < 50 |  |
| O=C([C@H](O)c1cccc(Cl)c1)N1CCc2nc(C3(c4cccc(-c5cnsc5)c4)CC3)[nH]c(=O)c2C1 [34-2] | < 50 | < 10 |
| O=C([C@H](O)c1cccc(C(F)(F)F)c1)N1CCc2nc(C3(c4cc(-c5ccccc5)cs4)CC3)[nH]c(=O)c2C1 [36-1] | < 50 | < 10 |
| O=C([C@H](O)c1cccc(C(F)(F)F)c1)N1CCc2nc(C3(c4cc(-c5cccnc5)cs4)CC3)[nH]c(=O)c2C1 [36-2] | < 50 |  |
| O=C([C@H](O)c1cccc(C(F)(F)F)c1)N1CCc2nc(C3(c4cccc(-c5ccccc5)c4)CC3)[nH]c(=O)c2C1 [37-1] | < 50 | < 3 |
| O=C([C@H](O)c1cccc(C(F)(F)F)c1)N1CCc2nc(C3(c4cccc(-c5cccnc5)c4)CC3)[nH]c(=O)c2C1 [37-2] | < 50 | < 10 |
| O=C([C@H](O)c1cccc(C(F)(F)F)c1)N1CCc2nc(C3(c4cccc(-c5cnsc5)c4)CC3)[nH]c(=O)c2C1 [37-3] | < 50 | < 3 |
| O=C([C@H](O)c1cccc(C(F)(F)F)c1)N1CCc2nc(C3(c4cncc(-c5ccccc5)c4)CC3)[nH]c(=O)c2C1 [38-1] | < 50 | < 3 |
| O=C([C@H](O)c1cccc(Cl)c1)N1CCCc2nc(C3(c4cc(-c5ccccc5)cs4)CC3)[nH]c(=O)c2C1 [39-1] | < 50 | < 3 |
| O=C([C@H](O)c1cccc(Cl)c1)N1CCCc2nc(C3(c4cc(-c5cnsc5)cs4)CC3)[nH]c(=O)c2C1 [39-2] | < 50 | < 10 |
| O=C([C@H](O)c1cccc(Cl)c1)N1CCCc2nc(C3(c4cc(-c5cccnc5)cs4)CC3)[nH]c(=O)c2C1 [39-3] | < 50 |  |
| O=C([C@H](O)c1cccc(Cl)c1)N1CCCc2nc(C3(c4cccc(-c5ccccc5)c4)CC3)[nH]c(=O)c2C1 [40-1] | < 50 | < 3 |
| O=C([C@H](O)c1cccc(Cl)c1)N1CCCc2nc(C3(c4cccc(-c5cnsc5)c4)CC3)[nH]c(=O)c2C1 [40-2] | < 50 | < 3 |
| O=C([C@H](O)c1cccc(Cl)c1)N1CCCc2nc(C3(c4cccc(-c5cccnc5)c4)CC3)[nH]c(=O)c2C1 [40-3] | < 50 | < 10 |
| C=C(C)c1cccc(C2(c3nc4c(c(=O)[nH]3)CN(C(=O)[C@H](O)c3cccc(Cl)c3)CCC4)CC2)c1 [40-4, (R)-6-(2-(3-chlorophenyl)-2-hydroxyacetyl)-2-(1-(3-(prop-1-en-2-yl)phenyl)cyclopropyl)-3,5,6,7,8,9-hexahydro-4H-pyrimido[5,4-c]azepin-4-one] | < 50 | < 3 |
| CC(C)(C)c1ccc(-c2cccc(C3(c4nc5c(c(=O)[nH]4)CN(C(=O)[C@H](O)c4cccc(Cl)c4)CCC5)CC3)c2)cc1 [40-5] | < 50 | < 10 |
| O=C([C@H](O)c1cccc(Cl)c1)N1CCCc2nc(C3(c4cccc(-c5cccc(Cl)c5)c4)CC3)[nH]c(=O)c2C1 [40-6] | < 50 | < 10 |
| O=C([C@H](O)c1cccc(Cl)c1)N1CCCc2nc(C3(c4cccc(-c5ccc(Cl)cc5)c4)CC3)[nH]c(=O)c2C1 [40-7] | < 50 | < 10 |
